{"source": "the NIST ThermoML archive (doi:10.1016/j.fluid.2015.05.043)", "details": "298.15 K; 101.33 kPa; Liquid; Alternating current cell with electrodes", "note": "± gives the expanded uncertainty stated by the source.", "data": [{"compound": "O", "note": "[water]", "values": [{"measurement": "electrical conductivity", "result": "0.000129 ± 1e-06", "unit": "S/m"}]}]}
